According to patent US7906657B2 (Merck Patent Gesellschaft MIT Beschraenkter Haftung, priority 2006, dated 2011):

Target: T1, Recombinant human HSP90α (Homo sapiens, UniProt P07900)
T1 construct: host or cells: E. coli
Assay: radioligand filter binding test with [3H]17AAG (HSP90 inhibition)
Conditions: competition with [3H]17AAG 0.08 μM; HSP90 1.5 μg/assay; 22° C., 30 min
Text: Test Method for the Measurement of HSP90 Inhibitors
The binding of geldanamycin or 17- allylamino-17-demethoxygeldanamycin (17AAG) to HSP90 and competitive inhibition thereof can be utilised in order to determine the inhibitory activity of the compounds according to the invention (Carreras et al. 2003, Chiosis et al. 2002).
In the specific case, a radioligand filter binding test is used. The radio-ligand used here is tritium-labelled 17-allylaminogeldanamycin, [3H]17AAG. This filter binding test allows a targeted search for inhibitors which interfere with the ATP binding site.
Recombinant human HSP90α (E. coli expressed, 95% purity);
[3H]17AAG (17-allylaminogeldanamycin, [allylamino-2,3-^3H. Specific activity: 1.11×10^12 Bq/mmol (Moravek, MT-1717);
HEPES filter buffer (50 mM HEPES, pH 7.0, 5 mM MgCl2, BSA 0.01%) Multiscreen FB (1 μm) filter plate (Millipore, MAFBNOB 50).
The 96-well microtitre filter plates are firstly irrigated and coated with 0.1% of polyethylenimine.
The test is carried out under the following conditions:
Reaction temperature 22° C.
Reaction time: 30 min., shaking at 800 rpm
50 mM HEPES HCI, pH 7.0, 5 mM MgCl2, 0.01% (w/v) BSA
At the end of the reaction, the supernatant in the filter plate is removed by suction with the aid of a vacuum manifold (Multiscreen Separation System, Millipore), and the filter is washed twice.
The filter plates are then measured in a beta counter (Microbeta, Wallac) with scintillator (Microscint 20, Packard).
“% of control” is determined from the “counts per minutes” values and the IC-50 value of a compound is calculated therefrom.

Row | IC50 [nM] | SMILES
1 | 44 | CN(Cc1ccccc1)C(=O)c1cc(-c2ccnn2-c2ccccc2Cl)c(O)cc1O [Compound A2, 5-[5-(N-Benzyl-N-methylaminocarbonyl)-2,4-dihydroxyphenyl]-1-(2-chlorophenyl)-1H-pyrazole]
2 | 43 | Cc1ccccc1-n1nccc1-c1cc(C(=O)N(C)Cc2ccc(F)cc2)c(O)cc1O [Compound A5, 5-{5-[N-(4-Fluorobenzyl)-N-methylaminocarbonyl]-2,4-dihydroxyphenyl}-1-(2-methylphenyl)-1H-pyrazole]
3 | 54 | Cc1ccccc1-n1nccc1-c1cc(C(=O)N(C)Cc2ccccc2F)c(O)cc1O [Compound A6, 5-{5-[N-(2-Fluorobenzyl)-N-methylaminocarbonyl]-2,4-dihydroxyphenyl}-1-(2-methylphenyl)-1H-pyrazole]
4 | 30 | Cc1ccccc1-n1nccc1-c1cc(C(=O)N(C)Cc2cccc(F)c2)c(O)cc1O [Compound A7, 5-{5-[N-(3-Fluorobenzyl)-N-methylaminocarbonyl]-2,4-dihydroxyphenyl}-1-(2-methylphenyl)-1H-pyrazole]
5 | 40 | COc1ccccc1CN(C)C(=O)c1cc(-c2ccnn2-c2ccccc2C)c(O)cc1O [Compound A9, 5-{5-[N-(2-Methoxybenzyl)-N-methylaminocarbonyl]-2,4-dihydroxyphenyl}-1-(2-methylphenyl)-1H-pyrazole]
6 | 33 | Cc1ccccc1-n1nccc1-c1cc(C(=O)N(C)Cc2ccccc2)c(O)cc1O [Compound A17, 5-[5-(N-Benzyl-N-methylaminocarbonyl)-2,4-dihydroxyphenyl]-1-(2-methylphenyl)-1H-pyrazole]
7 | 31 | Cc1ccccc1-n1nccc1-c1cc(C(=O)N(C)Cc2cccc(Br)c2)c(O)cc1O [Compound A20, 5-{5-[N-(3-Bromobenzyl)-N-methylaminocarbonyl]-2,4-dihydroxyphenyl}-1-(2-methylphenyl)-1H-pyrazole]
8 | 27 | Cc1ccccc1CN(C)C(=O)c1cc(-c2ccnn2-c2ccccc2C)c(O)cc1O [Compound A23, 5-{5-[N-(2-Methylbenzyl)-N-methylaminocarbonyl]-2,4-dihydroxyphenyl}-1-(2-methylphenyl)-1H-pyrazole]
9 | 20 | Cc1ccc(CN(C)C(=O)c2cc(-c3ccnn3-c3ccccc3C)c(O)cc2O)c(C)c1 [Compound A24, 5-{5-[N-(2,4-Dimethylbenzyl)-N-methylaminocarbonyl]-2,4-dihydroxyphenyl}-1-(2-methylphenyl)-1H-pyrazole]
10 | 54 | Cc1ccccc1-n1nccc1-c1cc(C(=O)N(C)Cc2ccc3c(c2)OCO3)c(O)cc1O [Compound A25]
11 | 26 | Cc1ccccc1-n1nccc1-c1cc(C(=O)N(C)Cc2c(F)cccc2Cl)c(O)cc1O [Compound A30, 5-{5-[N-(2-Chloro-6-fluorobenzyl)-N-methylaminocarbonyl]-2,4-dihydroxyphenyl}-1-(2-methylphenyl)-1H-pyrazole]
12 | 320 | COc1ccc(CN(C)C(=O)c2cc(-c3ccnn3-c3ccccc3C)c(O)cc2O)c(OC)c1 [Compound A31, 5-{5-[N-(2,4-Dimethoxybenzyl)-N-methylaminocarbonyl]-2,4-dihydroxyphenyl}-1-(2-methylphenyl)-1H-pyrazole]
13 | 52 | COc1ccc(Cl)cc1CN(C)C(=O)c1cc(-c2ccnn2-c2ccccc2C)c(O)cc1O [Compound A32, 5-{5-[N-(3-Chloro-6-methoxybenzyl)-N-methylaminocarbonyl]-2,4-dihydroxyphenyl}-1-(2-methylphenyl)-1H-pyrazole]
14 | 220 | Cc1ccccc1-n1nccc1-c1cc(C(=O)N(C)Cc2ccc(Cl)cc2Cl)c(O)cc1O [Compound A35, 5-{5-[N-(2,4-Dichlorobenzyl)-N-methylaminocarbonyl]-2,4-dihydroxyphenyl}-1-(2-methylphenyl)-1H-pyrazole]
15 | 160 | CN(Cc1ccccn1)C(=O)c1cc(-c2ccnn2-c2ccccc2Cl)c(O)cc1O [Compound A60, 5-{5-[N-(Pyridin-2-ylmethyl)-N-methylaminocarbonyl]-2,4-dihydroxyphenyl}-1-(2-chlorophenyl)-1H-pyrazole]
